Our source for the Ki values is patent publication US7504508B2, “PGD2 receptor antagonists for the treatment of inflammatory diseases” (Millennium Pharmaceuticals, Inc., priority 2002, dated 2009).

In this experiment the target is T1, cloned human CRTH2 receptor (Homo sapiens, UniProt Q9Y5Y4).
T1 construct: purchased Biosignal; host or cells: HEK-293 cells stably expressing human CRTH2 and G-alpha-16 (membranes)
T1 sequence (Q9Y5Y4 1-395): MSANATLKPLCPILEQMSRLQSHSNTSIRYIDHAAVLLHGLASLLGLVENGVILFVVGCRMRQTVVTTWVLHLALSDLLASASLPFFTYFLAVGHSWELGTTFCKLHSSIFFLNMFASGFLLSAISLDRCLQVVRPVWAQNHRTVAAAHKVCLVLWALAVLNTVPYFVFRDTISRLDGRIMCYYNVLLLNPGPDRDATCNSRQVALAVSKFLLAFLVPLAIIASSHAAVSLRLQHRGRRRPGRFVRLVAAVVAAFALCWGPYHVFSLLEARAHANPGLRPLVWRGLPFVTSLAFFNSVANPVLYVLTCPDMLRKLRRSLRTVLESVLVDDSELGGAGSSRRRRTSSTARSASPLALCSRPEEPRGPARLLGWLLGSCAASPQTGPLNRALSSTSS
Kind of experiment: Radioligand membrane binding assay: inhibition of [3H] PGD2 binding to CRTH2 (Scintillation Proximity Assay). The settings on record: inhibition of [3H] PGD2 binding to membranes of HEK-293 cells stably expressing human CRTH2; SPA; 10 point curve from 10 μM; room temperature, approximately 2 hours. How it is done:
This radioligand membrane binding assay evaluates the ability of compounds to inhibit [^3H] Prostaglandin D2 (PGD2) binding to the cloned human CRTH2 receptor stably expressed in HEK-293 cells (expressing human CRTh2 receptor and α subunit or the heteronimeric G protein 16 were prepared by Biosignal Company) using Scintillation Proximity Assay.
A binding buffer containing 50 mM Tris-HCl (pH 7.5), 5 mM MgCl2 and 1 mM EDTA was prepared immediately prior to performing the assay. A bead/membrane solution at twice the final assay concentration comprising membranes (membranes bought from Biosignal) from the HEK-293 cells cloned to express CRTH2 receptor bound to and [3H] PGD2 at twotimes the final assay concentration were prepared and stored on ice before adding to wells. Cold PGD2 at twenty times the final assay concentration was prepared and stored on ice before adding to wells defining non-specific binding (NSB) corning plates #3653 were used for this assay.
10 mM stock concentrations of compounds in 100% DMSO were prepared and stored at room temperature. A 10 point concentration response curve was then constructed for each compound, starting at 10 μM (final assay concentration). The compounds were prepared at 40 times final assay concentrations with nine consequent-3-fold dilutions.
0.1 μl of each concentration of compound were added to the appropriate well of the 384 plate and 2 μl of cold PGD2 was added into the wells defining NSB. 20 μl of [^3H] PGD2 and then 20 μl of 2× of bead/membrane solution were then added to each well.
The plates were allowed to incubate at room temperature for approximately 2 hours and then counted on Packard Topcount using SPA tritium protocol for 1 minute/well.
The percent inhibition of PGD2 binding (PGD2 used at the KD value or lower) to the HEK-293 cell membranes was determined, the assay was always run as duplicate for n=1 for a total of n=2.
(In general: SPA uses beads or plates that emit light when radiolabelled molecules are held near them.)

As a reminder, the Ki is the equilibrium dissociation constant of an inhibitor or competing ligand from its target. High values mean lower affinity, low ones higher affinity. With `CCC(=O)N(c1ccccc1)[C@H]1C[C@@H](C)N(C(=O)c2ccc(N3CCOCC3)cc2)c2ccccc21` [Compound A-120, (2R,4S)-cis-N-[2-methyl-1-(4-morpholin-4-yl-benzoyl)-1,2,3,4-tetrahydro-quinolin-4-yl]-N-phenyl-propionamide], the Ki is less than 10 µM.

In turn, `COc1cccc(C(=O)N2c3ccccc3[C@@H](N(C(C)=O)c3ccccc3)C[C@@H]2C)c1` (racemic) [Compound A-124, (±)-Trans-N-[1-(3-methoxy-benzoyl)-2-methyl-1,2,3,4-tetrahydro-quinolin-4-yl]-N-phenyl-acetamide] showed a Ki of less than 60 µM.

Compound `C=CCC(=O)N(c1ccccc1)[C@@H]1C[C@H](C)N(C(=O)c2ccc(F)cc2)c2ccccc21` (racemic) [Compound A-147, (±)-Cis-but-3-enoic acid [1-(4-fluoro-benzoyl)-2-methyl-1,2,3,4-tetrahydro-quinolin-4-yl]-phenyl-amide] had an inhibition constant (Ki) of less than 10 µM.

For the compound `CCC(=O)N(c1ccccc1)[C@@H]1C[C@H](C)N(C(=O)c2ccc(-c3ccc(C(F)(F)F)cc3Cl)o2)c2ccccc21` (racemic) [Compound A-143, (±)-Cis-N-{1-[5-(2-chloro-4-trifluoromethyl-phenyl)-furan-2-carbonyl]-2-methyl-1,2,3,4-tetrahydro-quinolin-4-yl}-N-phenyl-propionamide], the Ki is less than 10 µM.

In turn, `COc1cccc(C(=O)N2c3ccccc3[C@H](N(C(=O)c3ccno3)c3ccccc3)C[C@@H]2C)c1` (racemic) [Compound A-55, (±)-Cis-isoxazole-5-carboxylic acid [1-(3-methoxy-benzoyl)-2-methyl-1,2,3,4-tetrahydro-quinolin-4-yl]-phenyl-amide] yielded a Ki of less than 10 µM.

With `CC(=O)N(c1ccccc1)[C@@H]1C[C@H](C)N(C(=O)c2cc(C)nn2C)c2ccccc21` (racemic) [Compound A-159, (±)-Cis-N-[1-(2,5-dimethyl-2H-pyrazole-3-carbonyl)-2-methyl-1,2,3,4-tetrahydro-quinolin-4-yl]-N-phenyl-acetamide], the Ki was less than 10 µM.

In turn, `CC(=O)N(c1ccccc1)[C@@H]1C[C@H](C)N(C(=O)c2snnc2C)c2ccccc21` (racemic) [Compound A-17, (±)-Cis-N-[2-methyl-1-(4-methyl-[1,2,3]thiadiazole-5-carbonyl)-1,2,3,4-tetrahydro-quinolin-4-yl]-N-phenyl-acetamide] returned a Ki of less than 10 µM.

`CCC(=O)N(c1ccc(Cl)cc1)[C@@H]1C[C@H](COC)N(C(=O)c2ccc(F)cc2)c2ccccc21` (racemic) [Compound B-107, (±)-Cis-N-(4-chloro-phenyl)-N-[1-(4-fluoro-benzoyl)-2-methoxymethyl-1,2,3,4-tetrahydro-quinolin-4-yl]-propionamide] registered a Ki of less than 10 µM.

As to `CC(=O)N(c1ccccc1)[C@@H]1C[C@H](C)N(C(=O)c2ccccc2C)c2ccccc21` (racemic) [Compound A-153, (±)-Cis-N-[2-methyl-1-(2-methyl-benzoyl)-1,2,3,4-tetrahydro-quinolin-4-yl]-N-phenyl-acetamide], the Ki is less than 10 µM.

Turning to `CC(=O)N(c1ccccc1)[C@H]1C[C@@H](C)N(C(=O)c2ccno2)c2ccccc21` [Compound A-70, (2R,4S)-cis-N-[1-(isoxazole-5-carbonyl)-2-methyl-1,2,3,4-tetrahydro-quinolin-4-yl]-N-phenyl-acetamide], the Ki is less than 10 µM.

For `CC(=O)N(c1ccc(Cl)cc1)[C@H]1C[C@@H](C)N(C(=O)c2ccc(F)cc2)c2ccccc21` [Compound B-26, (2R,4S)-cis-N-(4-chloro-phenyl)-N-[1-(4-fluoro-benzoyl)-2-methyl-1,2,3,4-tetrahydro-quinolin-4-yl]-acetamide], the Ki was less than 10 µM.

For `CC(=O)N(c1ccccc1)[C@@H]1C[C@H](C)N(C(=O)c2cc(F)c(F)c(F)c2)c2ccccc21` (racemic) [Compound A-20, (±)-Cis-N-[2-methyl-1-(3,4,5-trifluoro-benzoyl)-1,2,3,4-tetrahydro-quinolin-4-yl]-N-phenyl-acetamide], the Ki was less than 10 µM.

`CCC[C@H]1C[C@@H](N(C(=O)CC)c2ccc(Cl)cc2)c2ccccc2N1C(=O)c1ccc(F)cc1` (racemic) [Compound B-103, (±)-Cis-N-(4-chloro-phenyl)-N-[1-(4-fluoro-benzoyl)-2-propyl-1,2,3,4-tetrahydro-quinolin-4-yl]-propionamide] showed a Ki of less than 10 µM.

For `C[C@H]1C[C@@H](N(C(=O)COc2ccccc2)c2ccccc2)c2ccccc2N1C(=O)c1ccc(F)cc1` (racemic) [Compound A-72, (±)-Cis-N-[1-(4-fluoro-benzoyl)-2-methyl-1,2,3,4-tetrahydro-quinolin-4-yl]-2-phenoxy-N-phenyl-acetamide], the Ki is less than 10 µM.

As for `COc1cccc(C(=O)N2c3ccccc3[C@H](N(C(C)=O)c3ccccc3)C[C@@H]2c2ccccc2)c1` (racemic) [Compound B-100, (±)-Cis-N-[1-(3-methoxy-benzoyl)-2-phenyl-1,2,3,4-tetrahydro-quinolin-4-yl]-N-phenyl-acetamide], the Ki was less than 60 µM.

Regarding `CCC(=O)N(c1ccc(Cl)cc1)[C@@H]1C[C@H](C)N(C(=O)c2ccc(F)cc2)c2ccc(OC(C)(C)C(=O)O)cc21` (racemic) [Compound B-66, (±)-Cis-2-[4-[(4-chloro-phenyl)-propionyl-amino]-1-(4-fluoro-benzoyl)-2-methyl-1,2,3,4-tetrahydro-quinolin-6-yloxy]-2-methyl-propionic acid], the Ki is less than 10 µM.

As for `COc1ccc(C(=O)N2c3ccccc3[C@H](N(C(C)=O)c3cccc(C(=O)O)c3)C[C@@H]2C)cc1` (racemic) [Compound B-40, (±)-Cis-3-{acetyl-[1-(4-methoxy-benzoyl)-2-methyl-1,2,3,4-tetrahydro-quinolin-4-yl]-amino}-benzoic acid], the Ki was less than 10 µM.

In turn, `CC(=O)N(c1ccccc1)[C@H]1C[C@@H](C)N(C(=O)c2cccs2)c2ccccc21` [Compound A-11, (2R,4S)-N-[2-methyl-1-(thiophene-2-carbonyl)-1,2,3,4-tetrahydro-quinolin-4-yl]-N-phenyl-acetamide] showed a Ki of less than 10 µM.

Compound `CCC(=O)N(c1ccc(Cl)cc1)[C@@H]1C[C@H](c2ccccc2)N(C(=O)c2ccc(F)cc2)c2ccccc21` (racemic) [Compound B-108, (±)-Cis-N-(4-chloro-phenyl)-N-[1-(4-fluoro-benzoyl)-2-phenyl-1,2,3,4-tetrahydro-quinolin-4-yl]-propionamide] had a Ki of less than 10 µM.

For `CCC(=O)N(c1ccc(Cl)cc1)[C@@H]1C[C@H](C)N(C(=O)c2ccc(F)cc2)c2cccc(OC)c21` (racemic) [Compound B-86, (±)-Cis-N-(4-chloro-phenyl)-N-[1-(4-fluoro-benzoyl)-5-methoxy-2-methyl-1,2,3,4-tetrahydro-quinolin-4-yl]-propionamide], the Ki was less than 10 µM.

Turning to `CCC(=O)N(c1ccc(Cl)cc1)[C@@H]1C[C@H](Cc2ccccc2)N(C(=O)c2ccc(F)cc2)c2ccccc21` (racemic) [Compound B-112, (±)-Cis-N-[2-benzyl-1-(4-fluoro-benzoyl)-1,2,3,4-tetrahydro-quinolin-4-yl]-N-(4-chloro-phenyl)-propionamide], the Ki was less than 10 µM.

On to `CCC(=O)OC[C@H]1C[C@@H](N(C(=O)CC)c2ccc(Cl)cc2)c2ccccc2N1C(=O)c1ccc(F)cc1` (racemic) [Compound B-104, (±)-Cis-propionic acid 4-[(4-chloro-phenyl)-propionyl-amino]-1-(4-fluoro-benzoyl)-1,2,3,4-tetrahydro-quinolin-2-ylmethyl ester], for which the Ki is less than 10 µM.

Compound `CCC(=O)N(c1ccccc1)C1CC(C)N(C(=O)C2CN(CC)CCO2)c2ccccc21` (racemic) [Compound A-82, (±)-Cis-N-[1-(4-Ethyl-morpholine-2-carbonyl)-2-methyl-1,2,3,4-tetrahydro-quinolin-4-yl]-N-phenyl-propionamide] yielded a Ki of less than 10 µM.

Compound `COc1ccc(C(=O)N2c3ccccc3[C@H](N(C(C)=O)c3ccc(CC(=O)O)cc3)C[C@@H]2C)cc1` (racemic) [Compound B-39, (±)-Cis-(4-{acetyl-[1-(4-methoxy-benzoyl)-2-methyl-1,2,3,4-tetrahydro-quinolin-4-yl]-amino}-phenyl)-acetic acid] had a Ki of less than 10 µM.
